Laboratory results as given in US20040087655A1, “6-Substituted indanoyl amino acid conjugates as mimics to the biological activity of coronatine” (priority 2001, published 2004).

Assays:
[1] = test system: Lima bean Phaseolus lunatus; assay: Induction of volatile emission in cut Lima bean plantlets (headspace collection, GC-MS); assay type: in vivo; conditions: for induction of C16 terpenoid TMTT emission / induction of methyl salicylate emission: volatile blend, FIG. 2
Experimental: Plant material: Induction experiments were performed with plantlets of the Lima bean Phaseolus lunatus (Ferry Morse cv. Jackson Wonder Bush). Individual plants were grown from seed in a plastic pot (Ø=5.5 cm) at 23° C. and 80% humidity using daylight fluorescent tubes at ca. 270 μE m^2 st^−1 with a photophase of 14 h. Experiments were conducted with 12-16 day-old seedlings showing two fully developed leaves.
Induction experiments: Plantlets of P. lunatus with two fully developed primary leaves were cut with razor blades and immediately transferred into Eppendorf vials containing a solution of the test-substance in tap water (100 μl). Solutions of the unsubstituted prior art compound indanoyl-L-isoleucine and of 6 -ethyl indanoyl-L-isoleucine methyl ester according to the invention were applied at 10, 100 and 1000 μM. Coronatne was used as a 100 μM aqueous solution. After uptake of the solution, the plantlets were placed into vials with tap water (5 ml) and were enclosed in small desiccators (750 ml) and maintained at 25° C. for 24 h. Control experiments were conducted under identical conditions by placing freshly cut plantlets into tap water. All experiments were carried out in triplicate.
Collection and analysis of headspace volatiles: The volatiles emitted from the pre-treated plants were collected continuously on small charcoal traps (1 mg charcoal, CLSA-Filter, Le Ruisseau de Montbrun, F-09350 Daumazan sur Arize, France) over a period of 24 h using air circulation as described in J. Donath and W. Boland, Phytochemistry 1995, 39, 785-790.
After desorption of the volatiles from the carbon trap with 40 μl of a solution of 1-bromodecane (internal standard, 50 μM) in dichloromethane. The extracts were directly analysed by GC/MS. GC-conditions: Fused-silica capillary (30 m×0.25 mm) coated with DB 5 (0.25 μm). Helium at […] served as carrier gas. Separation of the compounds was achieved under programmed conditions (50° C. for 2 min, then at 10° C. min^−1 to 200° C., finally at 35° C. min^−1 to 280° C.). MS: Finnigan GCQ; GC-interface at 265° C.; scan range 35-450 Da. Individual compounds (peak area) were quantified with respect to the peak area of the internal standard.

[2] = test system: touch-sensitive tendrils of Bryonia dioica; assay: Tendril coiling of Bryonia dioica shoots; assay type: in vivo; set-up: key to tendril coiling at 500 μm concentration / tendril coiling 100 μm concentration / tendril coiling 10 μm concentration: −: no coiling; +: minor coiling; ++: Considerable coiling; +++: intense coiling; conditions: for tendril coiling 10 μm concentration / tendril coiling 100 μm concentration / tendril coiling at 500 μm concentration: followed over 20 h
Experimental: Tendril coiling: To test the ability of the conjugates to induce tendril coiling, shoots of Bryonia dioica with the youngest, most well-developed tendrils were cut and immediately placed into vials with the test solution (2 ml) with the indanoyl conjugates (5-1000 μM) or coronatine (5-100 μM) and the extent of coiling was followed over a period of 20 h. The efficacy of the compounds as to their ability to induce tendril coiling was evaluated by the experimentator accordihg to the following scale: […]

[3] = test system: internal level of salicylic acid in plants; assay: Internal level of salicylic acid in pre-treated plants; assay type: in vivo; conditions: plants pre-treated with the compound
[4] = in particular in solution; contact with light; cited from earlier work

Molecule	up-regulation of biosynthesis of 4,8-dimethyl-nona-1,3,7-triene (DMNT) ([1]; compared with the unsubstituted prior art compound)	threshold concentration ([1]; induction of volatiles)	induction of C16 terpenoid TMTT emission [1]	induction of methyl salicylate emission [1]	fold more active than the prior art compound unsubstituted at the 6-position ([1]; volatile induction, relative to 1-oxo-indanoyl-isoleucine methyl ester)	tendril coiling 10 μm concentration [2]	tendril coiling 100 μm concentration [2]	tendril coiling at 500 μm concentration [2]	concentration inducing the coiling reaction (threshold concentration) ([2]; tendrils of Bryonia dioica)	increase of salicylate (internal level of salicylic acid) [3]	concentration necessary to induce a coiling response ([2]; tendrils of Bryonia dioica)	stability [4]
CCc1cc2c(c(C(=O)NC(C(=O)OC)C(C)CC)c1)CCC2=O (stereo not drawn) [2-[(6-Ethyl-1-oxo-indane-4-carbonyl)-amino]-3-methyl-pentanoic acid methyl ester]	much more pronounced	less than 10 μM	induced	induced	30-50 fold	+	+++	+++	20 µM	8 fold		
CC[C@H](C)[C@H](NC(=O)c1cccc2c1CCC2=O)C(=O)OC [1-oxo-indanoyl isoleucine methyl ester, 1-oxo-indanoyl-isoleucine methyl ester]						−	+	++			about 1 mM	
6-azido-1-oxo-indanoyl isoleucine derivative												unstable
CCC1CC1(NC(=O)C1=C[C@H](CC)C[C@@H]2C(=O)CC[C@H]12)C(=O)O (stereo partly drawn) [coronatine]			induced	induced		++	+++	+++	about 2 μM			
